Results as given in patent EP0944628B1, “HETERO-BIARYL-PYRIDOQUINAZOLINONE DERIVATIVES AS ANTI-CANCER AGENTS” (American Cyanamid Company, priority 1996, dated 1998).
Converted amounts (≈) assume the structure as drawn.

What was measured:
[1] = system: Colon 26 Advanced, Metastatic Tumor; test: Murine Colon 26 advanced, metastatic tumor, increase in mean life span; assay type: in vivo, CD2F1 mice; details: days 5,9,13
Description: (§1) CD2F1 mice are injected i.p. with 5 x 10^5 tumor cells on Day 0 of the test. Drugs are administered i.p. on Days 5, 9, and 13 after the tumor implantation. Positive drug response is indicated by a more than 25% increase in the mean life span (% ILS), relative to placebo treated controls. Drugs are considered to be toxic when the mean life span of the drug treated animals is more than 15% shorter than placebo treated controls.

P388 Leukemia = test: Murine P388 leukemia, increase in mean life span; assay type: in vivo, CD2F1 mice; details: days 1,5,9
Description: as §1, with “with 1” for “with 5”, “x 10^6” for “x 10^5”, “Days 1,” for “Days”, “5,” for “5, 9,”, “and 9” for “and 13”

A2780 S cells = test: Two cell line test procedure, in vitro cytotoxicity (sulforhodamine B), A2780 S; assay type: cell-based; details: Homo sapiens, A2780S, 48 hours exposure
Description: (§2) A2780 S and A2780 DDP cells [Biochemical and Molecular Properties of Cisplatin-resistant A2780 Cells Grown in Folinic Acid; Y. Lu, J. Hnan, and K. Scanlon, J. Biol. Chem., 263, 4891-4894, 1988.] are grown in RPMI 1640 medium containing 5% fetal calf serum, 50 µg/ml streptomycin, 50 units/ml penicillin, 50 µg/ml gentamycin, 0.03% L-glutamine, 1 nM estradiol, 1 nM testosterone, 5 µg/ml insulin, 5 µg/ml transferrin, and 5 ng/ml selenous acid, at 37°C, in a humidified atmosphere, containing 5% CO2. Experiments are done in the same media.
(§3) Cells are plated at the concentration of 5 x 10^4/ml on Day 0 of the experiment. On Day one cells are fixed with trichloroacetic acid and 5 ten-fold dilutions of tested compounds are added, in duplicates, to the remaining cells. On Day 3 (48 hours exposure to drugs) all cells are fixed with trichloroacetic acid, stained with 0.4% sulforhodamine B, and absorbency is read at 520 nm. The IC50 (concentration causing 50% inhibition) are determined for each drug.

A2780 DDP cells = test: Two cell line test procedure, in vitro cytotoxicity (sulforhodamine B), A2780 DDP; assay type: cell-based; details: Homo sapiens; A2780 DDP cells (cisplatin-resistant), 48 hours exposure
Description: as §2, §3

P388 = details: literature report; cited from earlier work

SMILES | % ILS (P388 Leukemia; P388, dose 50 mg/kg i.p.) | % ILS (P388 Leukemia; P388, dose 100 mg/kg i.p.) | % ILS (P388 Leukemia; P388, dose 200 mg/kg i.p.) | % ILS ([1]; COLON 26, dose 100 mg/kg i.p.) | % ILS ([1]; COLON 26, dose 200 mg/kg i.p.) | % ILS ([1]; COLON 26, dose 300 mg/kg i.p.) | IC50 (A2780 S cells) | IC50 (A2780 DDP cells) | further results
COc1cccc2c1C(=O)c1c(O)c3c(c(O)c1C2=O)C[C@@](O)(C(=O)CO)C[C@@H]3O[C@H]1C[C@H](N)[C@H](O)[C@H](C)O1 [Adriamycin, reference compound] | – | – | – | – | – | – | – | – | % ILS ([1]; COLON 26, dose 4 mg/kg i.p.): +70%
CN(C)CCNC(=O)c1cccn2c(=O)c3cc(-c4cccnc4)ccc3nc12 [Example 06, N-[2-(Dimethylamino)ethyl]-11-oxo-2-(3-pyridinyl)-11H-Pyrido-[2,1-b]quinazoline-6-carboxamide] | +16% | +22% | +47% | +9% | +15% | +21% | 0.9 µg/mL (≈ 2.32 µM) | 5 µg/mL (≈ 12.9 µM) | –
CN(C)CCNC(=O)c1cccn2c(=O)c3cc(-c4ccncc4)ccc3nc12 [Example 07, N-[2-(Dimethylamino)ethyl]-11-oxo-2-(4-pyridinyl)-11H-pyrido-[2,1-b]quinazoline-6-carboxamide] | +20% | +29% | +49% | -15% | -52% | -58% | 0.7 µg/mL (≈ 1.81 µM) | 5.6 µg/mL (≈ 14.5 µM) | –
O=C(NCCN1CCCC1)c1cccn2c(=O)c3cc(-c4ccncc4)ccc3nc12 [Example 08, 11-Oxo-2-(4-pyridinyl)-N-[2-(1-pyrrolidinyl)ethyl]-11H-pyrido-[2,1-b]quinazoline-6-carboxamide] | – | – | – | – | – | – | 0.8 µg/mL (≈ 1.93 µM) | 3.7 µg/mL (≈ 8.95 µM) | –
CN(C)CCNC(=O)c1cccn2c(=O)c3cc(-c4cnc5ccccc5c4)ccc3nc12 [Example 10, N-[2-(Dimethylamino)ethyl]-11-oxo-2-(3-quinolinyl)-11H-pyrido[2,1-b]quinazoline-6-carboxamide] | – | – | – | – | – | – | 4.5 µg/mL (≈ 10.3 µM) | 5.3 µg/mL (≈ 12.1 µM) | –
CN(C)CCNC(=O)c1cccn2c(=O)c3ccc(-c4cccnc4)cc3nc12 [Example 15, N-[2-(Dimethylamino)ethyl]-11-oxo-3-(3-pyridinyl)-11H-pyrido-[2,1-b]quinazoline-6-carboxamide] | +8% | +18% | +37% | +15% | +64% | -3% | 0.6 µg/mL (≈ 1.55 µM) | 0.7 µg/mL (≈ 1.81 µM) | –
CN(C)CCNC(=O)c1cccn2c(=O)c3ccc(-c4ccncc4)cc3nc12 [Example 16, N-[2-(Dimethylamino)ethyl]-11-oxo-3-(4-pyridinyl)-11H-pyrido-[2,1-b]quinazoline-6-carboxamide] | – | – | – | – | – | – | 7 µg/mL (≈ 18.1 µM) | 8.6 µg/mL (≈ 22.2 µM) | –
CN(C)CCNC(=O)c1cccn2c(=O)c3ccccc3nc12 [I, N-[2-(dimethylamino)ethyl]-11-oxo-11H-pyrido[2,1-b]quinalzoline-6-carboxamide] | – | – | – | – | – | – | – | – | activity in a P388 mouse model (P388): inactive
CC[C@]1(O)C[C@H]2CN(CCc3c([nH]c4ccccc34)[C@@](C(=O)OC)(c3cc4c(cc3OC)N(C=O)[C@H]3[C@@](O)(C(=O)OC)[C@H](OC(C)=O)[C@]5(CC)C=CCN6CC[C@]43[C@@H]65)C2)C1 [Vincristine, reference compound] | – | – | – | – | – | – | – | – | % ILS (P388 Leukemia; P388, dose 0.8 mg/kg i.p.): +114%
